# Measured values published in US11708344B2, “Flavone derivatives for the treatment and prophylaxis of hepatitis B virus disease” (Hoffmann-La Roche Inc., priority 2018, dated 2023).
# Columns and labels:
# [1] = system: HBsAg in HBV-infected PHH; assay: Cryopreserved primary human hepatocytes (PHH) HBV infection assay, extracellular HBsAg (CLIA); type: cell-based; settings: Hepatitis B virus, Hepatocyte, 216 h, read-out: HBsAg IC50, Cryopreserved PHH infected with HBV, 9 days post-compound treatment, extracellular HBsAg
# Outline: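 Cryopreserved PHH were infected with 5.8×10^6 HBV genome equivalents in medium with 4% PEG8000 and 1% DMSO. After 9 days of treatment, extracellular HBsAg was measured by CLIA, and IC50 was derived from a 4-parameter logistic fit.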
# [2] = system: HBeAg (surrogate marker for cccDNA) in HepDES19 cells; assay: Engineered HepDES19 primary screen assay (HBeAg ELISA); type: cell-based, HBV; settings: Hepatitis B virus, HepDES19, 120 h, read-out: IC50 (HBeAg level, HepDES19 primary screen assay), HepDES19 cells, 5 days compound incubation, HBeAg ELISA
# Outline: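 IC50 values come from 4-parameter logistic fits of HBeAg ELISA signal, the cccDNA surrogate, with CCK-8 run in parallel for viability. Compounds at half-log dilutions with 1% DMSO were applied for 5 days at 37 °C to HepDES19 cells previously cultured 8 days without Tet.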
# [3] = Human microsome stability assay; type: in vitro ADME; settings: human liver microsomes, 1 μM test compound, 0.5 mg/mL microsomal protein, 37° C., pH 7.4, 0-30 minutes
# Outline: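 Parent compound remaining was measured by LC-MS/MS at 0, 3, 6, 9, 15 and 30 min, following ACN quench. Reactions held 1 μM compound and 0.5 mg/mL human liver microsomal protein in pH 7.4 phosphate buffer at 37 °C, started by NADPH regeneration (1 mM NADP, 1 mM MgCl2); controls lacked NADPH.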
Structure (SMILES),IC50 [1] [nM],IC50 [2] [nM],Clearance of Human microsome [3] [mL/min/kg]
"O=c1cc(-c2ccccc2OC[C@H]2C[C@@H](C(=O)O)C2)oc2c(Cl)cccc12 [Example B026-A, Cis-3-[[2-(8-chloro-4-oxo-chromen-2-yl)phenoxy]methyl]cyclobutanecarboxylic acid]",4970,39.4,6.15
"O=c1cc(-c2ccccc2O[C@H]2C[C@H](C(=O)O)C2)oc2c(Cl)cccc12 [Example B002-B, trans-3-[2-(8-chloro-4-oxo-chromen-2-yl)phenoxy]cyclobutanecarboxylic acid]",3350,112,6.15
"O=C(O)CCCOc1cc(OC(F)(F)F)ccc1-c1cc(=O)c2cccc(Cl)c2o1 [Example A053, 4-[2-(8-chloro-4-oxo-chromen-2-yl)-5-(trifluoromethoxy)phenoxy]butanoic acid]",3570,491,7.66
"COc1cc(-c2cc(=O)c3cccc(Cl)c3o2)c(OCCO[C@H]2C[C@@H](C(=O)O)C2)cc1OC(F)F [Example C081, Cis-3-[2-[2-(8-chloro-4-oxo-chromen-2-yl)-5-(difluoromethoxy)-4-methoxy-phenoxy]ethoxy]cyclobutanecarboxylic acid]",8770,779,6.15
"COc1cc(-c2cc(=O)c3cccc(Cl)c3o2)c(OCCC(=O)O)cc1C(F)(F)F [Example A043, 3-[2-(8-chloro-4-oxo-chromen-2-yl)-4-methoxy-5-(trifluoromethyl)phenoxy]propanoic acid]",6690,2250,6.15
